According to paper PMC5884507, “A group of Populus trichocarpa DUF231 proteins exhibit differential O-acetyltransferase activities toward xylan” (PLoS ONE, 2018):

Columns and labels:
Experiment in all cases: radiolabelled acetyl transfer, scintillation counting
Type in all cases: biochemical
Conditions in all cases: 0.1 mM 14C-acetyl-CoA, 50 mM HEPES pH 7.0, 37 C, 4 hr
PtrXOAT4 = target: T1, PtrXOAT4 (Populus trichocarpa, UniProt A0A2R4P4M0)
T1 construct: gene XOAT4; lumenal catalytic domain 37-428, transmembrane region removed; Igkappa leader, C-terminal c-myc and His6; secreted by HEK293F, nickel-purified

PtrXOAT10 = target: T2, PtrXOAT10 (Populus trichocarpa, UniProt A0A2R4P4N0)
T2 construct: gene XOAT10; lumenal catalytic domain 55-438, transmembrane region removed; Igkappa leader, C-terminal c-myc and His6; secreted by HEK293F, nickel-purified

PtrXOAT8 = target: T3, PtrXOAT8 (Populus trichocarpa, UniProt A0A2R4P4N1)
T3 construct: gene XOAT8; lumenal catalytic domain 33-415, transmembrane region removed; Igkappa leader, C-terminal c-myc and His6; secreted by HEK293F, nickel-purified

PtrXOAT9 = target: T4, PtrXOAT9 (Populus trichocarpa, UniProt A0A2K1ZDC4)
T4 construct: gene XOAT9; lumenal catalytic domain 52-437, transmembrane region removed; Igkappa leader, C-terminal c-myc and His6; secreted by HEK293F, nickel-purified

PtrXOAT6 = target: T5, PtrXOAT6 (Populus trichocarpa, UniProt A0A2R4P4M4)
T5 construct: gene XOAT6; lumenal catalytic domain 36-446, transmembrane region removed; Igkappa leader, C-terminal c-myc and His6; secreted by HEK293F, nickel-purified

PtrXOAT5 = target: T6, PtrXOAT5 (Populus trichocarpa, UniProt A0A2R4P4M8)
T6 construct: gene XOAT5; lumenal catalytic domain 33-470, transmembrane region removed; Igkappa leader, C-terminal c-myc and His6; secreted by HEK293F, nickel-purified

PtrXOAT7 = target: T7, PtrXOAT7 (Populus trichocarpa, UniProt B9IGB9)
T7 construct: gene XOAT7; lumenal catalytic domain 38-426, transmembrane region removed; Igkappa leader, C-terminal c-myc and His6; secreted by HEK293F, nickel-purified
T7 sequence (B9IGB9 entry or part of it): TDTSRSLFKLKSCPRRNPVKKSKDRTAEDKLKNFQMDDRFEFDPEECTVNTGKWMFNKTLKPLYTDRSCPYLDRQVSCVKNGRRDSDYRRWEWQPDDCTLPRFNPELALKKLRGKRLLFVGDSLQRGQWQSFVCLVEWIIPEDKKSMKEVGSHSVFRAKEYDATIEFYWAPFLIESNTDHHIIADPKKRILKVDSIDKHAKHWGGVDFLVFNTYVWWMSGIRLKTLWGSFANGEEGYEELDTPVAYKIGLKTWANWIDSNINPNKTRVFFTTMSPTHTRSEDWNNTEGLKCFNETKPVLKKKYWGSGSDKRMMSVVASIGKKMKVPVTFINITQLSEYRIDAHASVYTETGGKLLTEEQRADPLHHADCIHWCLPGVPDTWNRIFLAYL

T5 sequence (A0A2R4P4M4 entry or part of it): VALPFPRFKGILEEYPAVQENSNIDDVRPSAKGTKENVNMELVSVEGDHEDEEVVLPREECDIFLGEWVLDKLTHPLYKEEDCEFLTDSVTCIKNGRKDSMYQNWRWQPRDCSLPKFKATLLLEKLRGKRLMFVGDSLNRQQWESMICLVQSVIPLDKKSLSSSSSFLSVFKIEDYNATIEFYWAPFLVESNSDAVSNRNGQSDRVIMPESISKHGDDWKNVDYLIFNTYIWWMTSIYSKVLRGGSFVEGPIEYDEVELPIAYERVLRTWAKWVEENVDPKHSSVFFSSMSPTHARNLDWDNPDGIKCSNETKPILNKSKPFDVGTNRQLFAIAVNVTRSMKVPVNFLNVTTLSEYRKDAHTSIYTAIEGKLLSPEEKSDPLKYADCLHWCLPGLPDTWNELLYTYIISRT
T4 sequence (A0A2K1ZDC4 entry or part of it): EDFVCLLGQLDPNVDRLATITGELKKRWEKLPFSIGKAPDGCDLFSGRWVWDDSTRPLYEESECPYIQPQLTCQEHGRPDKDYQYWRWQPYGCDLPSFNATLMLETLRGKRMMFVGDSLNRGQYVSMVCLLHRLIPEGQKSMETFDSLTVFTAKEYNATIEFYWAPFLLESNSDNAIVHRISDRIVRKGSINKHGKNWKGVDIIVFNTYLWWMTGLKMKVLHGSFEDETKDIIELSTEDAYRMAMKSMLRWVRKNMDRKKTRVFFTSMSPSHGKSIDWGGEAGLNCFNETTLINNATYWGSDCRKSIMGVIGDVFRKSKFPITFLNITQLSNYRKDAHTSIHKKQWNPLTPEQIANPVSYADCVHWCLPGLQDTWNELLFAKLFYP
T6 sequence (A0A2R4P4M8 entry or part of it): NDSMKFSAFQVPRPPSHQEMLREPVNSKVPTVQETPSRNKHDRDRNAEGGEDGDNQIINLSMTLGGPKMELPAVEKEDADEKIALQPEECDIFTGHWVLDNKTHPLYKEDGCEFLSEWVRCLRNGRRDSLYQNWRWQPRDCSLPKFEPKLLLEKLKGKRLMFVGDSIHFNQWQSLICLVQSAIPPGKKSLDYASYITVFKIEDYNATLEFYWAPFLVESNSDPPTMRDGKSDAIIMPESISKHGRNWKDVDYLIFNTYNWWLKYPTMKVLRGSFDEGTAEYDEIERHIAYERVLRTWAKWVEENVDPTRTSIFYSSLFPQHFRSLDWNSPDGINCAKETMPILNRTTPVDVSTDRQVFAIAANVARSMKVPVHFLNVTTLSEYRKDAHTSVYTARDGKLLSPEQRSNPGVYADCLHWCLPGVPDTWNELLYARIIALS
T1 sequence (A0A2R4P4M0 entry or part of it): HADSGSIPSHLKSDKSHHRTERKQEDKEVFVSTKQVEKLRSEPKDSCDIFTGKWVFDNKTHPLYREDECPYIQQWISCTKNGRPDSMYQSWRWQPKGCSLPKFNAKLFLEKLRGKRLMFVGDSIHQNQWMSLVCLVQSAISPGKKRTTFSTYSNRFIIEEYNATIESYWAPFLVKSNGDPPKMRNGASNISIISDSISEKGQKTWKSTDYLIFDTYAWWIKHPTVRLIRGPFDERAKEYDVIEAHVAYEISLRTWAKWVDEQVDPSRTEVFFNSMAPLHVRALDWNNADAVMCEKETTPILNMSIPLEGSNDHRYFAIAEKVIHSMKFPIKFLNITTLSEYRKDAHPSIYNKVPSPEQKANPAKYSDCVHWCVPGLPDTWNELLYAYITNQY
T2 sequence (A0A2R4P4N0 entry or part of it): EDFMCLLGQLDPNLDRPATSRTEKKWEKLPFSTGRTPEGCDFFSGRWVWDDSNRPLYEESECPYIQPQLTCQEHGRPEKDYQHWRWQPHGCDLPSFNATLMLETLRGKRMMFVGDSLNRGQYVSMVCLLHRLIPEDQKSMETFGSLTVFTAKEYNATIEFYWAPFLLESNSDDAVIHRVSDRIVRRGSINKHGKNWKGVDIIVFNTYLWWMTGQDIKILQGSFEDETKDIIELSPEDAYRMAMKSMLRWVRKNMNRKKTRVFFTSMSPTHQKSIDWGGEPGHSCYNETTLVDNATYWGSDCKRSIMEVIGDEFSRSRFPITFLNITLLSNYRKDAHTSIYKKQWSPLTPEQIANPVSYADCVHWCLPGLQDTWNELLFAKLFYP
T3 sequence (A0A2R4P4N1 entry or part of it): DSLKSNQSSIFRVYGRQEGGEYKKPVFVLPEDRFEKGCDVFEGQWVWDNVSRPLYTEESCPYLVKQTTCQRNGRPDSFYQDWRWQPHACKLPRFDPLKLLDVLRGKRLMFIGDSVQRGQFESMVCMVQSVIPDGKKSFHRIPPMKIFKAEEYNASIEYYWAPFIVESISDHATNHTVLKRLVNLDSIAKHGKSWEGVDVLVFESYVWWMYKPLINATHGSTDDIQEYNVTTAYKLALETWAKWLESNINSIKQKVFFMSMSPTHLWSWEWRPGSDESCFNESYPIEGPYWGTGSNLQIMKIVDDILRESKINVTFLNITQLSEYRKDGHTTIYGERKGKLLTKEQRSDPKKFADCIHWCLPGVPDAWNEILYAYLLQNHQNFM

For `OC1OC[C@@H](O[C@@H]2OC[C@@H](O[C@@H]3OC[C@@H](O[C@@H]4OC[C@@H](O[C@@H]5OC[C@@H](O[C@@H]6OC[C@@H](O)[C@H](O)[C@H]6O)[C@H](O)[C@H]5O)[C@H](O)[C@H]4O)[C@H](O)[C@H]3O)[C@H](O)[C@H]2O)[C@H](O)[C@H]1O` (stereo partly shown) [Xyl6, xylohexaose], the “radiolabelled acetyl transfer, scintillation counting” value (“radiolabelled acetyl transfer” below) (PtrXOAT4) was “PtrXOAT4 to PtrXOAT10 had a low level of activity”, the “radiolabelled acetyl transfer” value (PtrXOAT10) was “PtrXOAT4 to PtrXOAT10 had a low level of activity” and the “radiolabelled acetyl transfer” value (PtrXOAT8) was “PtrXOAT4 to PtrXOAT10 had a low level of activity”. For the same molecule, the “radiolabelled acetyl transfer” value (PtrXOAT9) was “PtrXOAT4 to PtrXOAT10 had a low level of activity”, the “radiolabelled acetyl transfer” value (PtrXOAT6) was “PtrXOAT4 to PtrXOAT10 had a low level of activity” and the “radiolabelled acetyl transfer” value (PtrXOAT5) was “PtrXOAT4 to PtrXOAT10 had a low level of activity”. For the same molecule, the “radiolabelled acetyl transfer” value (PtrXOAT7) was “PtrXOAT4 to PtrXOAT10 had a low level of activity”.
